Source: US11865195B2, “Evaluation of presence of and vulnerability to atrial fibrillation and other indications using matrix metalloproteinase-based imaging” (Lantheus Medical Imaging, Inc., priority 2011, dated 2024)
pIC50: −log10 of the molar value. Where two headings read alike, the source gives them in different places. Values belong to the compound of their own block, whether it stands above or below them.

Assays:
activated MMP-9 = target: T1, activated MMP-9 (Homo sapiens, UniProt P14780); test: In-vitro MMP inhibition assay (fluorogenic peptide substrate); format: biochemical; conditions: 1 h at 27° C., triplicate
T1 construct: purchased R&D Systems
T1 sequence (P14780 107-707 limits assumed): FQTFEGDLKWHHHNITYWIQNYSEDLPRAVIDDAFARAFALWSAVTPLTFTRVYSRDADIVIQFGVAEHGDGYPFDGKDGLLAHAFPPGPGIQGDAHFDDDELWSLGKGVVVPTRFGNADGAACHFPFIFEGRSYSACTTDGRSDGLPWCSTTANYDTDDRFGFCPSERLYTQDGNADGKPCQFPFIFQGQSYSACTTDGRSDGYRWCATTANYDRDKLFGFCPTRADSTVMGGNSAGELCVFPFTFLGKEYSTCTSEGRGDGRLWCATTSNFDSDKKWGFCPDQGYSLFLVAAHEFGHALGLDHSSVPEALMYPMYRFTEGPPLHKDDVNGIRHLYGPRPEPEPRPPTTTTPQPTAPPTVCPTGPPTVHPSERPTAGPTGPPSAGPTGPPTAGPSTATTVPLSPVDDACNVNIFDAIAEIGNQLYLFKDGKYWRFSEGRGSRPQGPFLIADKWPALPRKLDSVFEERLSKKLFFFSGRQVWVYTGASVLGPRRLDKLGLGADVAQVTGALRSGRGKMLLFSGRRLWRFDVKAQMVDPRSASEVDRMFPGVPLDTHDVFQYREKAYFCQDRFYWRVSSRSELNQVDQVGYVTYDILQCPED
Description: (§1) Individual inhibitors were dissolved in TCN buffer (50 mM Tris-HCl, 10 mM CaCl2, 150 mM […], 0.05% Brij 35 at pH 7.5) at appropriate dilutions then added to the wells of a microtiter plate (10 μL/well) in triplicate. Each well of test agent (and appropriate control wells) was then treated with activated MMP-2 or 9 (10 μL of a 40 nM solution in 50 mM Hepes, 10 mM CaCl2), 1% Brij 35 at pH 7.5; R&D Systems) followed by 30 μL TCN buffer and 150 μL the fluorogenic peptide substrate (Mca-PLGL-Dpa-AR-NH2; R&D Systems). The resulting mixtures were incubated 1 h at 27° C. then analyzed using a FL600 fluorescent plate reader (excitation=310/20; emission=420/50; optics=bottom; sensitivity=225) and KC4 Software.

activated MMP-2 = target: T2, activated MMP-2 (Homo sapiens, UniProt P08253); test: as above; format: biochemical; conditions: 1 h at 27° C., triplicate
T2 construct: purchased R&D Systems
T2 sequence (P08253 110-660): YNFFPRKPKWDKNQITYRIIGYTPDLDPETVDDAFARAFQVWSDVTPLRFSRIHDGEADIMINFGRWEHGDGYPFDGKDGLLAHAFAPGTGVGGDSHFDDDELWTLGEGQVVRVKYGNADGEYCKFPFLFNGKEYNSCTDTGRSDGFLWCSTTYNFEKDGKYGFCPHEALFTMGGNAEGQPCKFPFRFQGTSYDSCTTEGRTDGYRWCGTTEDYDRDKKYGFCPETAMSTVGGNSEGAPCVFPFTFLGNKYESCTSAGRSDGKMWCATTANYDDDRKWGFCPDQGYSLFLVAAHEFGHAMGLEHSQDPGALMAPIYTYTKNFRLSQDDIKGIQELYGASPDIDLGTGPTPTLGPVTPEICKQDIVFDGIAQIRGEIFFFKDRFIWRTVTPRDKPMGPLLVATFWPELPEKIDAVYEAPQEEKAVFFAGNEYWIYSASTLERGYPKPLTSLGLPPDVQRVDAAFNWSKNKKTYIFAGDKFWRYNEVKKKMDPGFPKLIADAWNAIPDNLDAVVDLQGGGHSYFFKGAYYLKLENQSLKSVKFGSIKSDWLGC
Description: as §1

[1] = Tissue biodistribution in the Oncomouse; format: in vivo, mice; conditions: tail vein injection, 1 h post-injection, mean±SEM
Description: Oncomice®, obtained through an in-house breeding program, were anesthetized intramuscularly with 0.1 mL of ketamine/acepromazine (1.8 mL saline, 1.0 mL ketamine, and 0.2 mL acepromazine) prior to dosing and tissue sampling. Individual mice were then injected via the tail vein with an imaging agent of the present invention (0.5-2.0 mCi/kg in 0.1 mL). Mice were euthanized and biodistribution performed at 1 h post-injection. Selected tissues were removed, weighed, and counted on a gamma counter. Results are expressed as the percentage of injected dose per gram tissue (mean±SEM; Table 3).

MMPs = conditions: cited from earlier work; for selectivity for MMP-2 and MMP-9 over the other MMPs: derivatized alanine hydroxamates
activated MMPs = test: MicroSPECT/CT imaging of aortic arch MMP activation in ApoE-/- mice under anti-lipid therapies; format: in vivo; conditions: 4 weeks of therapy; HFD group 4.99±0.27
Description: Methods: ApoE^−/− mice were fed a high fat diet (HFD) for 2 months to induce atherosclerosis. After two months, the mice were randomly assigned to one of 4 groups: HFD, HFD plus simvastatin (Sim), HFD plus fenofibrate (Fen) and high fat withdrawal (HFW). MicroSPECT/CT imaging using ^99mTc-RP805, a tracer with specificity for activated MMPs was performed after one week and 4 weeks.

- pIC50 (activated MMP-9): 7.69
- pIC50 (activated MMP-2): 7.50
- Imaging agent distribution, blood [1]: 1.07 ± 0.060 % ID/g
- Imaging agent distribution, bone [1]: 2.02 ± 0.320 % ID/g
- Imaging agent distribution, heart [1]: 0.95 ± 0.065 % ID/g
- Imaging agent distribution, kidney [1]: 20.6 ± 3.25 % ID/g
- Imaging agent distribution, liver [1]: 13.1 ± 2.17 % ID/g
- Imaging agent distribution, lung [1]: 0.97 ± 0.121 % ID/g
- Imaging agent distribution, muscle [1]: 0.50 ± 0.073 % ID/g
- Imaging agent distribution, spleen [1]: 0.69 ± 0.085 % ID/g
- Imaging agent distribution, tumor [1]: 0.95 ± 0.103 % ID/g
- Imaging agent distribution, urine [1]: 71.8 % ID/g
Structure (SMILES): CC(C)C[C@H]1C(=O)N[C@H](C(=O)NCCCCCCF)Cc2ccc(cc2)OCCC[C@@H]1C(=O)NO [Imaging Agent 2]

- pIC50 (activated MMP-9): 7.82
- pIC50 (activated MMP-2): 7.81
- Imaging agent distribution, blood [1]: 0.41 ± 0.099 % ID/g
- Imaging agent distribution, bone [1]: 1.28 ± 0.200 % ID/g
- Imaging agent distribution, heart [1]: 0.36 ± 0.064 % ID/g
- Imaging agent distribution, kidney [1]: 14.8 ± 1.79 % ID/g
- Imaging agent distribution, liver [1]: 23.6 ± 5.19 % ID/g
- Imaging agent distribution, lung [1]: 0.45 ± 0.071 % ID/g
- Imaging agent distribution, muscle [1]: 0.17 ± 0.043 % ID/g
- Imaging agent distribution, spleen [1]: 0.34 ± 0.057 % ID/g
- Imaging agent distribution, tumor [1]: 1.12 ± 0.204 % ID/g
- Imaging agent distribution, urine [1]: 7.67 ± 5.00 % ID/g
Structure (SMILES): CC(C)C[C@H]1C(=O)N[C@H](C(=O)NCC(=O)NCCCCCF)Cc2ccc(cc2)OCCC[C@@H]1C(=O)NO [Imaging Agent 4]

- pIC50 (activated MMP-9): 8.59
- pIC50 (activated MMP-2): 8.34
Structure (SMILES): CC(C)C[C@H]1C(=O)N[C@H](C(=O)NCC(=O)NCCCF)Cc2ccc(cc2)OCCC[C@@H]1C(=O)NO [Imaging Agent 3]

Structure (SMILES): CCCCCCC[C@H](CC(=O)CS)C(=O)N[C@H](C(=O)NC)C(C)(C)C [1-15]
- activity against MMPs (MMPs; succinyl thiol): good activity

Structure (SMILES): COc1ccc(Oc2ccc([C@]3(C)CCN([C@H](C)C(=O)NO)C3=O)cc2)cc1OC [1-11]
- selectivity for MMP-2 and MMP-9 over the other MMPs (MMPs): show selectivity

- pIC50 (activated MMP-9): 8.53
- pIC50 (activated MMP-2): 8.56
- Imaging agent distribution, blood [1]: 0.88 ± 0.061 % ID/g
- Imaging agent distribution, bone [1]: 2.86 ± 0.124 % ID/g
- Imaging agent distribution, heart [1]: 0.69 ± 0.073 % ID/g
- Imaging agent distribution, kidney [1]: 6.66 ± 1.46 % ID/g
- Imaging agent distribution, liver [1]: 11.3 ± 1.73 % ID/g
- Imaging agent distribution, lung [1]: 1.69 ± 0.382 % ID/g
- Imaging agent distribution, muscle [1]: 0.44 ± 0.049 % ID/g
- Imaging agent distribution, spleen [1]: 0.81 ± 0.021 % ID/g
- Imaging agent distribution, tumor [1]: 0.73 ± 0.026 % ID/g
- Imaging agent distribution, urine [1]: 7.21 ± 6.71 % ID/g
Structure (SMILES): CC(C)C[C@H]1C(=O)N[C@H](C(=O)NCc2ccc(OCCCF)cc2)Cc2ccc(cc2)OCCC[C@@H]1C(=O)NO [Imaging Agent 6]

- pIC50 (activated MMP-9): 8.45
- pIC50 (activated MMP-2): 8.28
Structure (SMILES): CC(C)C[C@H]1C(=O)N[C@H](C(=O)NCCCF)Cc2ccc(cc2)OCCC[C@@H]1C(=O)NO [Imaging Agent 1]

Structure (SMILES): CCC(C)(C)C(=O)O[C@H]1C[C@@H](C)C=C2C=C[C@H](C)[C@H](CC[C@@H]3C[C@@H](O)CC(=O)O3)[C@H]21 [simvastatin]
- 99mTc-RP805 uptake in the aortic arch under HFD plus anti-lipid drug (activated MMPs): 3.17±0.52 counts per voxel per mCi injected dose

Structure (SMILES): CC(C)OC(=O)C(C)(C)Oc1ccc(C(=O)c2ccc(Cl)cc2)cc1 [fenofibrate]
- 99mTc-RP805 uptake in the aortic arch under HFD plus anti-lipid drug (activated MMPs): 2.23±0.28 counts per voxel per mCi injected dose

Structure (SMILES): C[C@H](C(=O)NO)N1CCNc2cc(OCc3ccccc3)ccc2S1(=O)=O [1-12]
- selectivity for MMP-2 and MMP-9 over the other MMPs (MMPs): show selectivity

Structure (SMILES): CNC(=O)[C@@H]1Cc2ccc(cc2)OCCC[C@H](C(=O)NO)[C@@H](CC(C)C)C(=O)N1 [1-6]
- activity against MMPs (MMPs; macrocyclic succinyl hydroxamate): nanomolar activity

Structure (SMILES): O=C(NO)C1(CS(=O)(=O)c2ccc(Oc3ccc(Cl)cc3)cc2)CCOCC1 [1-13]
- selectivity for MMP-2 and MMP-9 over MMP-1 (MMPs): selectivity

Structure (SMILES): CCCCCCCCC[C@H](CC(=O)NO)C(=O)N[C@H](C(=O)NC)C(C)(C)C [1-5]
- selectivity for MMP-2 over MMP-1 and MMP-3 (MMPs; long alkyl substituent at P1' position): imparts selectivity

- pIC50 (activated MMP-9): 9.13
- pIC50 (activated MMP-2): 9.24
Structure (SMILES): CC(C)C[C@H]1C(=O)N[C@H](C(=O)NCc2ccc(F)cc2)Cc2ccc(cc2)OCCC[C@@H]1C(=O)NO [Imaging Agent 5]

Structure (SMILES): O=C(NO)C1CCCN[C@@H]1C(=O)N1CCC(c2ccccc2)CC1 (stereo partly drawn) [1-8]
- inhibition of MMPs (MMPs; succinyl hydroxamate with modified P2' and P3' positions): potent inhibition
